Source: US20260232666A1, “COMPOSITIONS AND METHODS FOR INHIBITION OF RAS” (TheRas, Inc., priority 2023, published 2026)

Key:
[1] = molecular target: T1, GppNHp-loaded KRAS4b (amino acids 1-169) G12C/C118S protein (Homo sapiens, UniProt P01116, C118S/G12C); assay: Covalent cysteine 12 modification by MALDI-TOF MS, GppNHp-loaded KRAS G12C; format: binding; settings: 15 minutes reaction time point
T1 construct: KRAS4b (amino acids 1-169) G12C/C118S protein; made in house
In short: (§1)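 Covalent adduct formation measured by linear-mode MALDI-TOF MS as modified peak height over summed peak heights, 15 min time point reported. Reactions: KRAS4b 1-169 G12C/C118S (1 μM, loaded with GppNHp, GTP or GDP) plus compound at 1:2.5 ratio, pH 7.3 HEPES/NaCl/MgCl2, room temperature.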

[2] = molecular target: T2, Avi-KRAS G12C (1-169) GppNHp/RAF1 RBD-3×FLAG (52-151) (Homo sapiens, UniProt P01116, G12C); assay: Raf1 RBD-KRAS G12C-GppNHp disruption assay (protein:protein interaction HTRF); format: biochemical
T2 construct: Avi-KRAS G12C (1-169) GppNHp; Avi (N)
Procedure: Biological Example 2: Disrupting KRAS G12C-Effector Binding (Protein: Protein Interaction HTRF Assay)
A protein: protein interaction (PPI) Homogeneous Time Resolved Fluorescence (HTRF) assay was used to determine the effectiveness of compounds of the present disclosure in disrupting KRAS G12C protein and effector (RAF1 Ras Binding Domain (RBD)) binding.
The HTRF assay used the following reagents and proteins: 50 nM Avi-KRAS G12C (1-169) GppNHp/RAF1 RBD-3×FLAG (52-151); 35 nM Avi-PI3K RBD-3×FLAG; Assay Buffer: 50 mM Tris pH 7.5, 100 mM NaCl, 5 mM MgCl2, 0.1% BSA, 0.01% Tween 20, 10% DMSO; Bead Buffer: 50 mM Tris pH 7.5, 0.01% Tween 20; Assay volume: 20 μL (384 well plate-low volume format); and Compound titration: 30-0.02 μM, 3× dilution series.
The HTRF assay employed the following protocol:
Compounds were dispensed in assay plate (384-well, Grenier Bio-One #784075) using Echo (model 555) with dose response settings: 200 nL final volume, titration from 100 μM as a 10-point dilution series. KRAS proteins were prepared in assay buffer, and dispensed on plates, 5 μL per well, then incubated for 1 h at room temperature, with 700 rpm shaking. RAF1 RBD were prepared in assay buffer, dispensed onto plates, 5 μL per well, and then incubated for 1 h at room temperature, with 700 rpm shaking. Reagent mix was then prepared and dispensed on plates, 10 μL per well, and then incubated for 1 h at room temperature, with 700 rpm shaking.
Plates were analyzed on an Envision plate reader using the following setting: Excitation 320 nm, Bandwidth 75 nm; Emission 615 nm, Bandwidth 85 nm; Gain 100%; Flashes 100; Lag 60 μs. Data was reported as percentage of activity, with DMSO as 100%. Data was plotted and analyzed using Prism 8.
The percent of modification of GppNHp, GTP, or GDP loaded KRAS G12C by MALDI-TOF MS, biochemical Raf1 RBD-KRAS G12C-GppNHp disruption assay IC50, and pERK inhibition IC50 of selected compounds described herein are shown in Table 4. For percent of modification at 15 minutes (MALDI-TOF MS) of GppNHp, GTP, or GDP loaded KRAS G12C: A: percent of modification ≥70%; B: 50≤percent of modification <70%; C: 10%≤percent of modification <50%; D: percent of modification <10%. […] For pERK inhibition in H358 cell assay: A: IC50≤0.1 μM; B: 0.1 μM<IC50≤1 μM; C: IC50>1 μM. Blanks in the table represent that compound was not tested in the indicated assay.

pERK in NCI-H358 cells = assay: Cell-based pERK HTRF assay (pERK inhibition in H358 cells); settings: 30 min incubation
In short: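 NCI-H358 cells were seeded at 4×10^4 cells/well in RPMI/10% FBS, then treated next day for 30 min at 0.25% DMSO (9-point, 3-fold series from 75 μM). Lysates were read by HTRF (d2/Eu cryptate antibody pair, 615 nm emission) after 4–24 h at room temperature to give pERK IC50.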

[3] = molecular target: T3, GTP-loaded KRAS4b (amino acids 1-169) G12C/C118S protein (Homo sapiens, UniProt P01116, C118S/G12C); assay: Covalent cysteine 12 modification by MALDI-TOF MS, GTP-loaded KRAS G12C; format: binding; settings: 15 minutes reaction time point
T3 construct: KRAS4b (amino acids 1-169) G12C/C118S protein; made in house
In short: as §1

[4] = molecular target: T4, GDP-loaded KRAS4b (amino acids 1-169) G12C/C118S protein (Homo sapiens, UniProt P01116, C118S/G12C); assay: Covalent cysteine 12 modification by MALDI-TOF MS, GDP-loaded KRAS G12C; format: binding; settings: 15 minutes reaction time point
T4 construct: KRAS4b (amino acids 1-169) G12C/C118S protein; made in house
In short: as §1

Compound	GppNHp-KRAS G12C percent of modification [1]	IC50 [2] [nM]	IC50 (pERK in NCI-H358 cells; Homo sapiens, NCI-H358, 0.5 h) [nM]	IC50 (pERK in NCI-H358 cells) [nM]	GTP-KRAS G12C percent of modification [3]	GDP-KRAS G12C percent of modification [4]
C=CC(=O)N1CC[C@@H](N(C)c2nc(OC[C@]34CCCN3C[C@H](F)C4)nc3c(F)c(-c4ccc(F)c5sc(N)c(C#N)c45)c(Cl)cc23)[C@H]1C [Compound 162]	A (percent of modification ≥70%)	< 500	< 100			
[2H]C1([2H])CCC2(C([2H])([2H])Oc3nc(N4CC(C)N(C(=O)C=C)CC4C)c4cc(C(F)(F)F)c(-c5ccc(F)c6sc(N)c(C#N)c56)c(F)c4n3)CC(F)CN12 (stereo not drawn) [Compound 96]		< 500	< 100			
C=CC(=O)N1CC[C@@H](N(C)c2nc(OC[C@]34CCCN3C[C@H](F)C4)nc3c(F)c(-c4ccc(F)c5sc(N)c(C#N)c45)c(C(F)(F)F)cc23)[C@H]1C [Compound 157]		< 500	< 100			
C=CC(=O)N1CC[C@@H](N(C)c2nc(OC[C@@]34CCCN3C[C@H](F)C4)nc3c(F)c(-c4ccc(F)c5sc(N)c(C#N)c45)ccc23)[C@@H]1C [Compound 43]	A (percent of modification ≥70%)	< 500	< 100			
[2H]C1([2H])CN2C[C@H](F)C[C@]2(COc2nc(N(CC)[C@@H]3CCN(C(=O)C=C)[C@@H]3C)c3cc(F)c(-c4ccc(F)c5sc(N)c(C#N)c45)cc3n2)C1 [Compound 123]		< 500	< 100			
C=CC(=O)N1CC[C@@H](N(C)c2nc(OC[C@@]34CCCN3C[C@H](F)C4)nc3cc(-c4ccc(F)c5sc(N)c(C#N)c45)c(F)cc23)[C@H]1C [Compound 15]		< 500				
C=CC(=O)N1CC[C@@H](N(CC)c2nc(OC[C@]34CCCN3C[C@H](F)C4)nc3c(F)c(-c4ccc(F)c5sc(N)c(C#N)c45)ccc23)[C@H]1C [Compound 170]	A (percent of modification ≥70%)	< 500	< 100			
[2H]C1([2H])CN2C[C@H](F)C[C@]2(COc2nc(N(C)[C@@H]3CCN(C(=O)C=C)[C@@H]3C)c3cc(C(F)(F)F)c(-c4ccc(F)c5sc(N)c(C#N)c45)c(F)c3n2)C1 [Compound 128, 4-(4-(((2R,3R)-1-acryloyl-2-methylpyrrolidin-3-yl)(methyl)amino)-8-fluoro-2-(((2R,7aS)-2-fluorotetrahydro-1H-pyrrolizin-7a(5H)-yl-6,6-d2)methoxy)-6-(trifluoromethyl)quinazolin-7-yl)-2-amino-7-fluorobenzo[b]thiophene-3-carbonitrile]	A (percent of modification ≥70%)	< 500	< 100			
C=CC(=O)N1CC[C@@H](N(C)c2nc(OC[C@@]34CCCN3C[C@H](F)C4)nc3cc(-c4ccc(F)c5sc(N)c(C#N)c45)c(C#N)cc23)[C@H]1C [Compound 16]		< 500	< 100			
C=CC(=O)N1CC[C@@H](N(C)c2nc(OC[C@@]34CCCN3C[C@H](F)C4)nc3c(F)c(-c4ccc(F)c5sc(N)c(C#N)c45)c(C(F)(F)F)cc23)[C@@H]1C (atropisomer, axis not shown) [Compound 71]		500 to 5000		100 to 1000		
COC1CC(COc2nc(N(C)C3CCN(C(=O)/C=C/c4nc(C(C)(F)F)no4)C3C)c3cc(Cl)c(-c4ccc(F)c5sc(N)c(C#N)c45)c(F)c3n2)N(C)C1 (stereo not drawn) [Compound 190]	B (50≤percent of modification <70%)		< 100		B (50≤percent of modification <70%)	B (50≤percent of modification <70%)
C=CC(=O)N1CC[C@@H](N(C)c2nc(O[C@@H](C)[C@@H]3C[C@@H](OC)CN3C)nc3c(F)c(-c4ccc(F)c5sc(N)c(C#N)c45)c(Cl)cc23)[C@H]1C [Compound 194]	A (percent of modification ≥70%)		< 100		A (percent of modification ≥70%)	A (percent of modification ≥70%)
[2H]C1([2H])CN2C[C@H](F)C[C@]2(COc2nc(N3C[C@@H](C)N(C(=O)C=C)C[C@@H]3C)c3cc(C(F)(F)F)c(-c4ccc(F)c5sc(N)c(C#N)c45)c(F)c3n2)C1 [Compound 125]	A (percent of modification ≥70%)	< 500				
